Usually EC50 stands for the concentration needed to bring the measured effect to its halfway point.

Here are results for eleven molecules from patent US20240150377A1, “MODULATORS OF CYSTIC FIBROSIS TRANSMEMBRANE CONDUCTANCE REGULATOR” (VERTEX PHARMACEUTICALS INCORPORATED, priority 2020, published 2024).

For data set [1], the target named is T1, CFTR (Homo sapiens, UniProt P13569, DEL508-508).
T1 construct: endogenous in cells; host or cells: primary human bronchial epithelial cells from CF subjects (F508del/MF-HBE), differentiated at air-liquid interface
T1 sequence (P13569 with tags, fused parts or gaps DEL508-508): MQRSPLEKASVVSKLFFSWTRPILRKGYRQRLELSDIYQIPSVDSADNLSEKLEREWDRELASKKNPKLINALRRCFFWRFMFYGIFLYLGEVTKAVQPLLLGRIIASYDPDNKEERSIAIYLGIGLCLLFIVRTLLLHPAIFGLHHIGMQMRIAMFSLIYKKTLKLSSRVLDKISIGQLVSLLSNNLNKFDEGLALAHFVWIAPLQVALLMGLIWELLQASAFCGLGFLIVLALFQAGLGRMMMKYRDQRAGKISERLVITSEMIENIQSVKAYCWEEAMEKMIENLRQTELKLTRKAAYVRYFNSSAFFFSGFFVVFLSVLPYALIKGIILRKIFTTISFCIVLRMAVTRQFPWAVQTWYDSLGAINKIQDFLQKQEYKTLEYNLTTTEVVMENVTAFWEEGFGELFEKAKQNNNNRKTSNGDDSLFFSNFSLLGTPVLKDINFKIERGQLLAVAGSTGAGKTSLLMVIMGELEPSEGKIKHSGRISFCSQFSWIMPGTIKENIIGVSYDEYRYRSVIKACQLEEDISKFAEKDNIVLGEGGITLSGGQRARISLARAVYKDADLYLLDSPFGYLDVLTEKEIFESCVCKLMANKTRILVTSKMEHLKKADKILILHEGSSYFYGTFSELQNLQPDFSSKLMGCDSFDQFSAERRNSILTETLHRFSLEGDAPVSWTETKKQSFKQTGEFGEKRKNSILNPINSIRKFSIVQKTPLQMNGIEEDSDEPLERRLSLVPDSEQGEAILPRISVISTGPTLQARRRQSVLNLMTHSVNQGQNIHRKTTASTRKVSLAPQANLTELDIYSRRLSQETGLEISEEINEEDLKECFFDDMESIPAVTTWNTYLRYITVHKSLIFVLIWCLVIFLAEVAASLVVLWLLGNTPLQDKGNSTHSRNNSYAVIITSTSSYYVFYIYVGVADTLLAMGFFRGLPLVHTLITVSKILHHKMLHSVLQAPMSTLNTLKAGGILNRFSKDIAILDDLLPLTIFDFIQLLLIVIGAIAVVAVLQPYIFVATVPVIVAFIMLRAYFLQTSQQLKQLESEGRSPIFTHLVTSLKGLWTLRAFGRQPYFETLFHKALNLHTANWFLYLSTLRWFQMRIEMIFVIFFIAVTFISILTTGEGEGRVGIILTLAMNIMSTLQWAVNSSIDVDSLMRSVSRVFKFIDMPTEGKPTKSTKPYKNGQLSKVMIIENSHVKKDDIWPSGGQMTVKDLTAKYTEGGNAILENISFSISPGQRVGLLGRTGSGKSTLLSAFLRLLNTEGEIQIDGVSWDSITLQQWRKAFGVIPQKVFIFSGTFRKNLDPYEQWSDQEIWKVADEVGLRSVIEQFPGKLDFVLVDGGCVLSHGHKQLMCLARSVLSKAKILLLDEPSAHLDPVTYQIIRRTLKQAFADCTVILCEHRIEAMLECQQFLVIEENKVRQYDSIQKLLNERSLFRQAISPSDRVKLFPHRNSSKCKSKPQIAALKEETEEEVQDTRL
Description: HBE assay: Ussing chamber assay of CFTR-mediated short-circuit currents. The format is cell-based. Particulars: for EC50: read-out: HBE EC50. In a few lines:
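CFTR-mediated Isc (μA/cm²) equals the peak response to apical 20 μM forskolin minus the residual after a 20 μM each BPO/GlyH-101/CFTR inhibitor 172 cocktail, recorded in Ussing chambers at Vhold 0 mV, 37 °C, pH 7.4, with 30 μM apical amiloride. Cells were F508del/MF HBE cultures preincubated 18-24 h with corrector (concentration range or 10 μM) plus 1 μM ivacaftor in 20% human serum.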

For data set [2] the following is noted: amide bond, 13-membered ring, DMF.
Where [3] appears, read: Table 10, read-out: HBE Max activity (%).
Setting [4] is: Table 11, read-out: HBE Activity at 10 μM (%).
The mark [5] stands for this setting: Table 11, read-out: HBE Max Activity (%).

Like-named read-outs stand apart in the source and are kept apart here.

As for `Cc1cccc(C)c1-c1cc2nc(n1)NS(=O)(=O)c1cccc(c1)C(=O)N(Cc1ncc(N(C)CC(C)(C)C)cn1)[C@H](CC(C)(C)C)CO2` [Compound 115, (11R)-6-(2,6-Dimethylphenyl)-11-(2,2-dimethylpropyl)-12-[[5-[2,2-dimethylpropyl(methyl)amino]pyrimidin-2-yl]methyl]-2,2-dioxo-9-oxa-2λ^6-thia-3,5,12,19-tetrazatricyclo[12.3.1.14,8]nonadeca-1(18),4(19),5,7,14,16-hexaen-13-one], the EC50 in data set [1] (Table 10) was under 1000 nM. Further, the Emax in data set [1] (setting [3]) was over 60%. Further, the ring closure, yield after HPLC in data set [2] (from 3-[[4-(2,6-dimethylphenyl)-6-[(2R)-2-[[5-[2,2-dimethylpropyl(methyl)amino]pyrimidin-2-yl]methylamino]-4,4-dimethyl-pentoxy]pyrimidin-2-yl]sulfamoyl]benzoic acid (Dihydrochloride salt), HATU/DIEA, 19.3 mM, 25.0 °C) is 50%.

As for `Cc1cccc(C)c1-c1cc2nc(n1)NS(=O)(=O)c1cccc(c1)C(=O)N(Cc1ncc(NCC(C)(C)C)cn1)[C@H](CC(C)(C)C)CO2` [Compound 116, (11R)-6-(2,6-Dimethylphenyl)-11-(2,2-dimethylpropyl)-12-[[5-(2,2-dimethylpropylamino)pyrimidin-2-yl]methyl]-2,2-dioxo-9-oxa-2λ^6-thia-3,5,12,19-tetrazatricyclo[12.3.1.14,8]nonadeca-1(18),4(19),5,7,14,16-hexaen-13-one], in data set [1] (setting [4]), the activation at 10 µM was over 60%. Besides, the EC50 in data set [1] (Table 11) was under 1000 nM. Besides, in data set [1] (setting [5]), the Emax is over 60%. In addition, in data set [2] (from 3-[[4-(2,6-dimethylphenyl)-6-[(2R)-2-[[5-(2,2-dimethylpropylamino)pyrimidin-2-yl]methylamino]-4,4-dimethyl-pentoxy]pyrimidin-2-yl]sulfamoyl]benzoic acid (Dihydrochloride salt), HATU/DIEA, 23.6 mM, 25.0 °C), the ring closure, yield after HPLC stood at 15%.

`Cc1cccc(C)c1-c1cc2nc(n1)NS(=O)(=O)c1cccc(c1)C(=O)N(Cc1ncc(OC(C)C)cn1)[C@H](CC(C)(C)C)CO2` [Compound 118, (11R)-6-(2,6-Dimethylphenyl)-11-(2,2-dimethylpropyl)-12-{[5-(propan-2-yloxy)pyrimidin-2-yl]methyl}-9-oxa-2λ^6-thia-3,5,12,19-tetraazatricyclo[12.3.1.14,8]nonadeca-1(17),4,6,8(19),14(18),15-hexaene-2,2,13-trione]: the EC50 in data set [1] (Table 11) is under 1000 nM. Also, the Emax in data set [1] (setting [5]) is over 60%. In addition, in data set [2] (from Cc1cccc(C)c1-c1cc(OC[C@@H](CC(C)(C)C)NCc2ncc(OC(C)C)cn2)nc(NS(=O)(=O)c2cccc(C(=O)O)c2)n1, CDMT/NMM, 14.3 mM, 13.25 h), the ring closure, yield after HPLC turned out to be 59%.

`Cc1cccc(C)c1-c1cc2nc(n1)NS(=O)(=O)c1cccc(c1)C(=O)N(Cc1ncc(N3CCC(C)(C)C3)cn1)[C@H](CC(C)(C)C)CO2` [Compound 119, (11R)-6-(2,6-Dimethylphenyl)-11-(2,2-dimethylpropyl)-12-[[5-(3,3-dimethylpyrrolidin-1-yl)pyrimidin-2-yl]methyl]-2,2-dioxo-9-oxa-2λ^6-thia-3,5,12,19-tetrazatricyclo[12.3.1.14,8]nonadeca-1(18),4(19),5,7,14,16-hexaen-13-one]: in data set [1] (Table 11), the EC50 fell in the range of 1000 to 3000 nM. For the same molecule, the Emax in data set [1] (setting [5]) is over 60%. In addition, the ring closure, yield after HPLC in data set [2] (from 3-[[4-(2,6-dimethylphenyl)-6-[(2R)-2-[[5-(3,3-dimethylpyrrolidin-1-yl)pyrimidin-2-yl]methylamino]-4,4-dimethyl-pentoxy]pyrimidin-2-yl]sulfamoyl]benzoic acid (Dihydrochloride salt), CDMT/NMM, 29.4 mM) came to 47%.

With `Cc1cccc(C)c1-c1cc2nc(n1)NS(=O)(=O)c1cccc(c1)C(=O)N(Cc1nccc(C(F)(F)F)n1)[C@H](CC(C)(C)C)CO2` [Compound 122, (11R)-6-(2,6-Dimethylphenyl)-11-(2,2-dimethylpropyl)-12-{[4-(trifluoromethyl)pyrimidin-2-yl]methyl}-9-oxa-2λ^6-thia-3,5,12,19-tetraazatricyclo[12.3.1.14,8]nonadeca-1(17),4,6,8(19),14(18),15-hexaene-2,2,13-trione], in data set [1] (Table 11), the EC50 is under 1000 nM. Besides, the Emax in data set [1] (setting [5]) was over 60%. The molecule also had a ring closure, yield after HPLC in data set [2] (from Cc1cccc(C)c1-c1cc(OC[C@@H](CC(C)(C)C)NCc2nccc(C(F)(F)F)n2)nc(NS(=O)(=O)c2cccc(C(=O)O)c2)n1, CDMT/NMM, 27.3 mM) of 48%.

As for `COCc1cccc(CN2C(=O)c3cccc(c3)S(=O)(=O)Nc3nc(cc(-c4c(C)cccc4C)n3)OC[C@H]2CC(C)(C)C)n1` [Compound 130, (11R)-6-(2,6-Dimethylphenyl)-11-(2,2-dimethylpropyl)-12-[[6-(methoxymethyl)-2-pyridyl]methyl]-2,2-dioxo-9-oxa-2λ^6-thia-3,5,12,19-tetrazatricyclo[12.3.1.14,8]nonadeca-1(18),4(19),5,7,14,16-hexaen-13-one], the EC50 in data set [1] (Table 11) is under 1000 nM. For the same molecule, the Emax in data set [1] (setting [5]) is over 60%. In addition, the ring closure, yield after HPLC in data set [2] (from COCc1cccc(CN[C@@H](COc2cc(-c3c(C)cccc3C)nc(NS(=O)(=O)c3cccc(C(=O)O)c3)n2)CC(C)(C)C)n1, CDMT/NMM, 3.0 h, 2 steps) came to 10%.

With `Cc1cccc(C)c1-c1cc2nc(n1)NS(=O)(=O)c1cccc(c1)C(=O)N(Cc1cc(C(C)(C)C)[nH]n1)[C@H](CC(C)(C)C)CO2` [Compound 134, (11R)-12-[(5-tert-Butyl-1H-pyrazol-3-yl)methyl]-6-(2,6-dimethylphenyl)-11-(2,2-dimethylpropyl)-2,2-dioxo-9-oxa-2λ^6-thia-3,5,12,19-tetrazatricyclo[12.3.1.14,8]nonadeca-1(18),4(19),5,7,14,16-hexaen-13-one], the EC50 in data set [1] (Table 10) was under 1000 nM. The Emax in data set [1] (setting [3]) was over 60%. This molecule also had a ring closure, yield after HPLC in data set [2] (from Cc1cccc(C)c1-c1cc(OC[C@@H](CC(C)(C)C)NCc2cc(C(C)(C)C)[nH]n2)nc(NS(=O)(=O)c2cccc(C(=O)O)c2)n1, CDMT/NMM, 3.0 h, 2 steps) of 20%.

For the molecule `Cc1cccc(C)c1-c1cc2nc(n1)NS(=O)(=O)c1cccc(c1)C(=O)N(Cc1cc(C3CC3)no1)[C@H](CC(C)(C)C)CO2` [Compound 137, (11R)-12-[(3-Cyclopropyl-1,2-oxazol-5-yl)methyl]-6-(2,6-dimethylphenyl)-11-(2,2-dimethylpropyl)-9-oxa-2λ^6-thia-3,5,12,19-tetraazatricyclo[12.3.1.14,8]nonadeca-1(17),4(19),5,7,14(18),15-hexaene-2,2,13-trione], the EC50 in data set [1] (Table 11) was under 1000 nM. Moreover, the Emax in data set [1] (setting [5]) was over 60%. The ring closure, yield after HPLC in data set [2] (from Cc1cccc(C)c1-c1cc(OC[C@@H](CC(C)(C)C)NCc2cc(C3CC3)no2)nc(NS(=O)(=O)c2cccc(C(=O)O)c2)n1, HATU/TEA, 15.4 mM, 2.0 h) stood at 44%.

As for `Cc1cccc(C)c1-c1cc2nc(n1)NS(=O)(=O)c1cccc(c1)C(=O)N(Cc1cnn3ccccc13)[C@H](CC(C)(C)C)CO2` [Compound 139, (11R)-6-(2,6-Dimethylphenyl)-11-(2,2-dimethylpropyl)-12-({pyrazolo[1,5-a]pyridin-3-yl}methyl)-9-oxa-2λ^6-thia-3,5,12,19-tetraazatricyclo[12.3.1.14,8]nonadeca-1(17),4,6,8(19),14(18),15-hexaene-2,2,13-trione], the activation at 10 µM in data set [1] (Table 10, read-out: HBE activity at 10 (μM) (%)) is over 60%. Further, the ring closure, yield after HPLC in data set [2] (from Cc1cccc(C)c1-c1cc(OC[C@@H](CC(C)(C)C)NCc2cnn3ccccc23)nc(NS(=O)(=O)c2cccc(C(=O)O)c2)n1, HATU/DIEA, 29.4 mM, 4.0 h) amounted to 57%.

As for `Cc1cccc(C)c1-c1cc2nc(n1)NS(=O)(=O)c1cccc(c1)C(=O)N(Cc1cn(C)nn1)[C@H](CC(C)(C)C)CO2` [Compound 140, (11R)-6-(2,6-Dimethylphenyl)-11-(2,2-dimethylpropyl)-12-[(1-methyltriazol-4-yl)methyl]-2,2-dioxo-9-oxa-2λ^6-thia-3,5,12,19-tetrazatricyclo[12.3.1.14,8]nonadeca-1(18),4(19),5,7,14,16-hexaen-13-one], in data set [1] (setting [4]), the activation at 10 µM was over 60%. The molecule further gave a ring closure, yield after HPLC in data set [2] (from Cc1cccc(C)c1-c1cc(OC[C@@H](CC(C)(C)C)NCc2cn(C)nn2)nc(NS(=O)(=O)c2cccc(C(=O)O)c2)n1, HATU/DIEA, 29.1 mM, 15.0 h) of 25%.

Consider `Cc1cccc(C)c1-c1cc2nc(n1)NS(=O)(=O)c1cccc(c1)C(=O)N(C[C@@H]1CN(C(=O)OC(C)(C)C)CCO1)[C@H](CC(C)(C)C)CO2` [Compound 141, tert-Butyl (2R)-2-[[(11R)-6-(2,6-dimethylphenyl)-11-(2,2-dimethylpropyl)-2,2,13-trioxo-9-oxa-2λ^6-thia-3,5,12,19-tetrazatricyclo[12.3.1.14,8]nonadeca-1(18),4(19),5,7,14,16-hexaen-12-yl]methyl]morpholine-4-carboxylate], for which the EC50 in data set [1] (Table 11) was under 1000 nM. In data set [1] (setting [5]), the Emax is over 60%. Also, the ring closure, yield after HPLC in data set [2] (from Cc1cccc(C)c1-c1cc(OC[C@@H](CC(C)(C)C)NC[C@@H]2CN(C(=O)OC(C)(C)C)CCO2)nc(NS(=O)(=O)c2cccc(C(=O)O)c2)n1, CDMT/NMM, 26.4 mM) is 69%.
